# From US20060019995A1, “2,3-dihydro-4(1H)-pyridone derivatives , method for production thereof and pharmaceutical composition comprising the same” (priority 2002, published 2006)
# Key:
# [1] = system: social recognition (olfactory memory); experiment: Social recognition in the Wistar rat; format: in vivo; details: intraperitoneal route, 3 mg/kg, second encounter after 2 hours
# Description: Initially described in 1982 by THOR and HOLLOWAY (J. Comp. Physiol., 1982, 96, 1000-1006), the social recognition test has subsequently been proposed by various authors (DANTZER et al., Psychopharmacology, 1987, 91, 363-368; PER10 et al., Psycho-pharmacology, 1989, 97, 262-268) for studying the mnemocognitive effects of new compounds. The test is based on the natural expression of the olfactory memory of the rat and its natural tendency to forget and allows evaluation of memorisation, by recognition of a young congeneric animal, by an adult rat. A young rat (21 days), taken at random, is placed for 5 minutes in the cage housing an adult rat. With the aid of a video device, the experimenter observes the social recognition behaviour of the adult rat and measures its overall duration. The young rat is then removed from the adult rat's cage and is placed in its own cage until the second introduction. The adult rat is then given the compound under test (intraperitoneal route) and, after 2 hours, is again brought into the presence (5 minutes) of the young rat. The social recognition behaviour is then observed again and its duration measured.
# [2] = system: PBQ-induced abdominal cramps; experiment: Abdominal contractions induced by phenyl-p-benzoquinone (PBQ) in the NMRI mouse; format: in vivo; details: IP, 20 mg/kg, PBQ at t=30 min, cramps counted t=35 to 45 min
# Experimental: Intraperitoneal administration of an alcoholic solution of PBQ causes abdominal cramps in the mouse (SIEGMUND et al., Proc. Soc. Exp. Biol., 1957, 95, 729-731). The cramps are characterised by repeated contractions of the abdominal musculature, accompanied by extension of the hind limbs. Most analgesics antagonise these abdominal cramps (COLLIER et al., Brit. J. Pharmacol. Chem., 1968, 32, 295-310). At t=0 min., the animals are weighed and the compound being studied is administered by the IP route. A group of control animals is given the solvent used for the compound. At t=30 min., an alcoholic solution of PBQ (0.2%) is administered by the IP route in a volume of 0.25 ml/mouse. Immediately after administration of the PBQ, the animals are placed in cylinders of plexiglass (L=19.5 cm; I.D.=5 cm). From t=35 min. to t=45 min., the animals' reaction is observed and the experimenter notes the total number of abdominal cramps per animal.
SMILES,"T2 − T1 (s) ± sem, difference between recognition times of the 2 encounters [1]",Inhibition (%) of the number of abdominal cramps measured in the control animals [2]
"CC1CC(=O)C=C(c2cccc(Cl)c2)N1 (stereo not shown) [Example 6, 6-(3-Chlorophenyl)-2-methyl-2,3-dihydro-4(1H)-pyridone]",-21.4 ± 5.1 s,48%
"CC1CC(=O)C=C(c2ccccc2)N1C(=O)OC(C)(C)C (stereo not shown) [Example 3, Tert-butyl 2-methyl-4-oxo-6-phenyl-3,4-dihydro-1(2H)-pyridine-carboxylate]",-25.3 ± 7.1 s,59%
"CC1CC(=O)C=C(c2cccs2)N1C(=O)OC(C)(C)C (stereo not shown) [Example 1, Tert-butyl 2-methyl-4-oxo-6-(2-thienyl)-3,4-dihydro-1(2H)-pyridinecarboxylate]",-17.4 ± 2.5 s,–
"CC1CC(=O)C=C(c2ccc(Cl)nc2)N1 (stereo not shown) [Example 8, 6-(6-Chloro-3-pyridyl)-2-methyl-2,3-dihydro-4(1H)-pyridone]",-17.2 ± 4.6 s,–
"CC1CC(=O)C=C(c2cccs2)N1 (stereo not shown) [Example 2, 2-Methyl-6-(2-thienyl)-2,3-dihydro-4(1H)-pyridone]",–,48%
